In series [1] the target is CYP2D6 (Homo sapiens, UniProt P10635). The experiment in a line: Effect of CYP-selective inhibitors on metabolism of entrectinib by pooled human liver microsomes. The settings on record: inhibitor 1 µM, 1 µM entrectinib. Background: Liver microsomes are vesicles of endoplasmic reticulum, rich in cytochrome P450 enzymes.
Series [2] can be described thus: Study 2: midazolam pharmacokinetics alone or with single and multiple dose entrectinib. The source says:
Following completion of this part of the study, subjects could continue in an expanded access portion of the study which is not discussed here.

Series [3] has as its system CYP3A4/5. The experiment in a line: Effect of CYP-selective inhibitors on metabolism of entrectinib by pooled human liver microsomes. The class given is in vitro ADME.
A short description of series [4]: clinical. Particulars: human, oral.
Where [5] appears, read: Effect of Multiple Dose Entrectinib.
Setting [6] is: Effect of Single Dose Entrectinib.
[7] abbreviates: Midazolam alone, geometric mean (geometric CV).
[8] abbreviates: Midazolam with multiple dose entrectinib 600 mg/day, geometric mean (geometric CV).
The mark [9] stands for this setting: Midazolam with multiple dose entrectinib, geometric mean (geometric CV).
Setting [10] is: Midazolam with multiple dose entrectinib, median (minimum, maximum).
[11] abbreviates: Midazolam with single dose entrectinib 600 mg, geometric mean (geometric CV).
Where [12] appears, read: Midazolam with single dose entrectinib, geometric mean (geometric CV).
Setting [13] is: Digoxin alone, geometric mean (geometric CV).
[14] abbreviates: digoxin with entrectinib vs alone.
The mark [15] stands for this setting: single dose entrectinib 600 mg vs digoxin alone.

The structures appear in SMILES notation. Where two headings read alike, the source gives them in different places.

Sequence of CYP2D6 (P10635 whole entry): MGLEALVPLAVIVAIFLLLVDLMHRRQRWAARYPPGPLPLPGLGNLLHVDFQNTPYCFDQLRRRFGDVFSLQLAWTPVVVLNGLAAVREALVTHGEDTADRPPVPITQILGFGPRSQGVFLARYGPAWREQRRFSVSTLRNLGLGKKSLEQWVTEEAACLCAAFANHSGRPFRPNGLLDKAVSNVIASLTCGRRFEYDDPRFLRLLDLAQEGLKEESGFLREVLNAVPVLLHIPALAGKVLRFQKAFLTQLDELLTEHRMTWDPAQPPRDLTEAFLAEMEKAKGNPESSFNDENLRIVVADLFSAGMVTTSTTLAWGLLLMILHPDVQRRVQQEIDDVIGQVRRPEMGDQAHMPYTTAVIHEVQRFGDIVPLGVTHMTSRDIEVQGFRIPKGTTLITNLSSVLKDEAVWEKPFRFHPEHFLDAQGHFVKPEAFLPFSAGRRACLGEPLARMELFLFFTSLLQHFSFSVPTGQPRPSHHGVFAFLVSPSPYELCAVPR

`C=C[C@H]1C[N@@]2CC[C@H]1C[C@@H]2[C@@H](O)c1ccnc2ccc(OC)cc12` [Quinidine]: the “Effect on Formation of other Entrectinib Metabolites” value in series [1] is “+ (> 20% inhibition of 1 metabolite)”.
Broadly, the Cmax is the maximum level reached in the sampled fluid or tissue. For `OCc1ncc2n1-c1ccc(Cl)cc1C(c1ccccc1F)=NC2` [1’-hydroxymidazolam], the “Ratio of adjusted geometric means (90% Confidence Intervals), AUCinf” value is recorded as 0.89 (0.70, 1.12) in series [2] (setting [5]) and 0.96 (0.83, 1.10) in series [2] (setting [6]). The “Ratio of adjusted geometric means (90% Confidence Intervals), Cmax” value in series [2] (setting [5]) was 0.49 (0.36, 0.67); in series [2] (setting [6]), 0.62 (0.50, 0.76). Besides, the Cmax in series [2] (setting [7]) came out at 6.57 nM; in series [2] (setting [8]), 3.51 nM; in series [2] (setting [11]), 4.21 nM. Moreover, the t1/2 in series [2] (setting [7]) was 3.71 (81%) h; in series [2] (setting [9]), 5.37 (75%) h; in series [2] (setting [12]), 4.56 (49%) h. Moreover, the Tmax is recorded as 0.5 (0.25, 1.00) h in series [2] (Midazolam alone, median (minimum, maximum)); 0.75 (0.5, 5.97) h in series [2] (setting [10]); 1.0 (0.48, 23.6) h in series [2] (Midazolam with single dose entrectinib, median (minimum, maximum)). Besides, the AUCinf in series [2] (Midazolam alone, single 7.5 mg midazolam dose (title), subjects with advanced solid tumors, geometric mean (geometric CV)) is recorded as 14.9 (60%) nM•h; in series [2] (setting [8]), 14.0 (42%) nM•h; in series [2] (setting [11]) it was 14.4 (52%) nM•h. In addition, the “metabolic ratio of metabolite to parent for AUCinf and Cmax, point estimates” value in series [2] (coadministration with multiple-dose entrectinib vs midazolam alone) was 59% to 64%. Also, the “decrease of 1’-hydroxymidazolam metabolite-to-parent ratio” value in series [2] (multiple oral doses of entrectinib at steady-state) is given as 41%.
Broadly, the inhibition is how much of the control response was suppressed. As for `CC(=O)N1CCN(c2ccc(OCC3COC(Cn4ccnc4)(c4ccc(Cl)cc4Cl)O3)cc2)CC1` (stereo not drawn) [Ketoconazole], in series [3] (human liver microsomes), the “inhibition of entrectinib metabolism depending on the metabolite formed” value is listed as 50–80%. This compound also displayed an inhibition at 1 µM in series [3] (human, pooled human liver microsomes, probe entrectinib (metabolism to M5)) of 82 ± 3%. Moreover, in series [3] (inhibitor 1 µM, 1 µM entrectinib, pooled human liver microsomes), the “Effect on Formation of other Entrectinib Metabolites” value is on record as “+ + + (> 50% inhibition of multiple metabolites)”.
Broadly, the half-life is the time in which the quantity being followed falls by half. Lower therefore signals fast loss. For orientation: AUC(0-inf) means total exposure, with the tail of the curve extrapolated. As to `Cc1ncc2n1-c1ccc(Cl)cc1C(c1ccccc1F)=NC2` [Midazolam], the t1/2 in series [2] (setting [9]) is given as 6.4 (68%) h; in series [2] (setting [12]), 5.33 (44%) h. The Tmax is 0.50 (0, 1.05) h in series [2] (setting [10]) and 0.49 h in series [2] (human, plasma, oral, 7.5 mg). Moreover, the half-life in series [2] (human, plasma, oral) was 8.13 h; in series [2] (human, plasma, oral, 7.5 mg), 5.2 h. The Cmax in series [2] (human, plasma, oral, 7.5 mg) was 19 nM; in series [2] (human, plasma, oral, 600 mg), 12.9 nM. Further, in series [2] (human, plasma, oral, 600 mg), the AUC(0-inf) was 0.0437 µM·h. The “mean t1/2” value in series [2] (midazolam with a single dose of entrectinib) turned out to be 5.73 h.
In series [4] (plasma, 75 mg), `C[C@H]1O[C@@H](O[C@H]2[C@@H](O)C[C@H](O[C@H]3[C@@H](O)C[C@H](O[C@H]4CC[C@@]5(C)[C@H](CC[C@@H]6[C@@H]5C[C@@H](O)[C@]5(C)[C@@H](C7=CC(=O)OC7)CC[C@]65O)C4)O[C@@H]3C)O[C@@H]2C)C[C@H](O)[C@@H]1O` [Digoxin] registered an AUC(0-inf) of 0.0342 µM·h. For the same compound, in series [4] (plasma, 600 mg), the AUC(0-inf) turned out to be 0.0404 µM·h, the concentration peaked (Cmax) at 2.52 nM, the Tmax was found to be 2 h and the half-life is 38.4 h. Also, the CL renal in series [4] (urine, 600 mg) amounted to 123 mL/min. In addition, under setting [13], the highest level (Cmax) was 1.97 nM; the “fe, percent of dose excreted unchanged in urine” value is listed as 40.2 (13%); the t1/2 was 35.9 (15%) h. Under “Digoxin alone, geometric mean (geometric CV), listed as digoxin”, the “fe, percent of dose excreted unchanged in urine” value came out at 40%. In addition, the Tmax (Digoxin alone, median (minimum, maximum)) is listed as 1.0 (0.5, 1.0) h. Besides, the CLR (Digoxin alone, renal clearance, geometric mean (geometric CV)) is recorded as 130 (16%) mL/min. Moreover, the “fe, percent of dose excreted unchanged in urine” value (Digoxin with single 600 mg entrectinib, geometric mean (geometric CV)) is 44.0 (14%). Besides, for the setting “Digoxin with single 600 mg entrectinib, geometric mean (geometric CV), listed as digoxin”, the “fe, percent of dose excreted unchanged in urine” value was 44%. For the same compound, under setting [14], the “Ratio of adjusted geometric means (90% Confidence Intervals), AUCinf” value was 1.18 (1.06, 1.32); the “Ratio of adjusted geometric means (90% Confidence Intervals), CLR” value is 0.95 (0.91, 0.98); the “Ratio of adjusted geometric means (90% Confidence Intervals), Cmax” value is given as 1.28 (0.98, 1.67). For the same compound, where the note is “exploratory analysis, 90% CI: 90.9%, 98.4%”, the “geometric mean ratio of CLR with and without entrectinib” value was determined as 94.6%. Also, the Tmax later result (single 600 mg dose of entrectinib coadministered with digoxin) is reported as “approximately 1 h”. Also, under setting [15], the “increase of AUCinf” value is reported as 18% and the “increase of Cmax” value is listed as 28%. Besides, the “increase in digoxin exposure” value (single oral dose of entrectinib coadministered) was 20–30%.
